Key:
anti-GroEL antibodies = assay: Anti-GroEL antibodies binding by ELISA; parameters: species or system rabbit; settings: direct and indirect ELISA, different concentrations of antibodies, FIG. 6
Method: Anti-GroEL antibodies binding by ELISA. The same amount of proteins (1 μg) were coated as described above. […] ELISAs were developed as described above.

E. coli SV2 groEL44 = assay: In vivo complementation of thermosensitive groEL mutant at 43° C., strain SV2; type: cell-based; settings: pJC plasmid, relative to growth at 30° C.
Method: (§1) In vivo complementation experiments. Complementation experiments were performed by transforming electro-competent SV2 or SV6 cells with the pJC series of expression vectors and plating an aliquot of the transformation reactions directly at 43° C. The percentage of viable cells relative to the growth at 30° C. was determined. A representative number of clones which grew at 43° C. were incubated in absence of any selective markers at permissive temperature. After prolonged growth the loss of the pJC plasmids and the ts phenotype were verified. Each experiment was performed in duplicate. Plasmids carrying no groE genes or encoding the GroE proteins were used as negative or positive controls, respectively.

E. coli SV6 groEL673 = assay: In vivo complementation of thermosensitive groEL mutant at 43° C., strain SV6; type: cell-based; settings: pJC plasmid, relative to growth at 30° C.
Method: as §1

bacteriophage T4 (T4D0) = assay: Growth (plaque formation) of bacteriophage T4 at 37° C. in transformed wild-type and groEL mutant strains; type: cell-based, E. coli; parameters: key: +++: normal plaque-forming ability relative to wild-type groEL^+ strain, in terms of both number and size; ++: 5-fold fewer plaques relative to wild-type groEL^+ strain, or both; 10-fold fewer plaques, or plaque size reduced relative to wild-type groEL^+ strain, or both; +/−: 10^2-fold fewer plaques and plaque size reduced relative to wild-type groEL^+ strain; no visible plaques (<10^−4); settings: pJC plasmid
Description: Bacterial and bacteriophage strains. The E. coli strains used in this study were: C41(DE3), a mutant of BL21(DE3) capable of expressing toxic genes (Miroux, B. & Walker, J. E. (1996) J. Mol. Biol. 260, 289-298); SV2 (B178groEL44), SV3 (B178groEL59) and SV6 (B178groEL673): isogenic strains carrying temperature-sensitive alleles of groEL; SV1(=B178) (Georgopoulos, C., Hendrix, R. W., Casjens, S. R. & Kaiser, A. D. (1973) J. Mol. Biol. 76, 45-60), AI90 (ΔgroEL::kan^R) [pBAD-EL] (Ivic, A., Olden, D., Wallington, E. J. & Lund, P. A. (1997) Gene 194, 1-8), and TG1 (Gibson, T. J. (1984) Ph.D. thesis, University of Cambridge, U.K). Bacteriophage λb2cI (Zeilstra-Ryalls, J., Fayet, O., Baird, L. & Georgopoulos, C. (1993) J. Bacteriol. 175, 1134-1143) was used according to standard methods (Arber, W., Enquist, L., Hohn, B., Murray, N. E. & Murray, K. (1983) in Lambda II., ed. R. W. Hendrix, J. W. r., F. W. Stahl and R. A. Weisberg (Cold Spring Harbor Laboratory, Cold Spring Harbor, N.Y.), pp. 433-466); plaque formation was assayed at 30° C. T4D0, a derivative of bacteriophage T4 (Zeilstra-Ryalls, J., Fayet, O., Baird, L. & Georgopoulos, C. (1993) J. Bacteriol. 175, 1134-1143), was used according to standard methods (Karam, J. D. (1994) Molecular biology of bacteriophage T4. (American Society for Microbiology, Washington, D.C.)); plaque formation was assayed at 37° C.
Bacteriophage λ requires the chaperonins GroES and GroEL for protein folding during morphogenesis; bacteriophage T4 requires GroEL and Gp31, the latter being encoded by the bacteriophage genome (Zeilstra-Ryalls, J., Fayet, O. & Georgopoulos, C. (1991) Annu. Rev. Microbiol. 45, 301-325). Nine groE alleles which fail to support λ growth have been sequenced (Zeilstra-Ryalls, J., Fayet, O., Baird, L. & Georgopoulos, C. (1993) J. Bacteriol. 175, 1134-1143). We examined the ability of MC7, over-expressed from the constitutive tet promoter on a high-copy number vector (see FIG. 2), to complement three mutant groEL alleles for plaque formation by λ (b2cI) at 30° C. (Table 3) and T4 at 37° C. (Table 4).

[1] = test system: Lorist6 (bacteriophage λ origin vector); assay: Effect of over-expression on Lorist6 replication; type: cell-based, E. coli; settings: over-expression from pJC vectors in TG1 or SV1
Method: Effect on Lorist6 replication of over-expressing of MC7. The effect of over-expressing Gp31 proteins from pJC vector series on the replication of the bacteriophage λ origin vector, Lorist6 (Gibson, T. J., Rosenthal, A. & Waterston, R. H. (1987) Gene 53, 283-286) in TG1 (Gibson, T. J. (1984) Ph.D. thesis, University of Cambridge, U.K) or SV1 (Georgopoulos, C., Hendrix, R. W., Casjens, S. R. & Kaiser, A. D. (1973) J. Mol. Biol. 76, 45-60) cells was determined essentially as described (Chatellier, J., Hill, F., Lund, P. & Fersht, A. R. (1998) Proc. Natl. Acad. Sci. U.S.A. 95, 9861-9866).

[2] = test system: mutant Huntingdon exon 1-expressing PC12 and SH-SY5Y cells; assay: Inclusion formation and cell death in mutant Huntingdon exon 1-expressing cells on overexpression of chaperones; type: cell-based
Description: These phenomena have been studied by transiently transfecting part of Huntingdon exon 1 in COS-7, PC12, and SH-SY5Y cells. Inclusion formation was not seen with constructs expressing 23 glutamines but was repeat length and time dependent for mutant constructs with 43-74 repeats. HSP70, HSP40, the 20S proteasome and ubiquitin colocalized with inclusions. […] Thus, inclusion formation may be enhanced in polyglutamine diseases, if the pathological process results in proteasome inhibition or a heat-shock response. […] To our knowledge, this is the first report of an HSP increasing aggregation of an abnormally folded protein in mammalian cells and expands the current understanding of the roles of HDJ-2yHSDJ in protein folding (See Wyttenbach, A. et al. (2000) Proc. Natl. Acad. Sci. USA 97, 2899-2903).
We have tested MC72 in the same system.

GroEL (1-548): E. coli molecular chaperone, 14 subunits of 57.5 kD in two seven membered rings [reference compound]
Detection by antibodies specific to GroEL (anti-GroEL antibodies): comparable detection levels | Relative colony forming ability, SV2 groEL44 (E. coli SV2 groEL44): 1 | Relative colony forming ability, SV6 groEL673 (E. coli SV6 groEL673): 1 | Growth of bacteriophage T4, SV1 (groEL^+) (bacteriophage T4 (T4D0)): +++ | Growth of bacteriophage T4, SV2 groEL44 (bacteriophage T4 (T4D0)): +++ | Growth of bacteriophage T4, SV3 groEL59 (bacteriophage T4 (T4D0)): +++ | Growth of bacteriophage T4, SV6 groEL673 (bacteriophage T4 (T4D0)): +++ | Replication of the Lorist6 plasmid [1]: inhibit the replication of the Lorist6 plasmid | cell death [2]: had no effect | inclusion formation [2]: had no effect

Reference: patent publication US20020137891A1, “Protein scaffold and its use to multimerise monomeric polypeptides” (priority 1999, published 2002)
